Measurements: the supplement of paper PMC13380429

Legend:
HepG2 [1] = assay: relative viability EC50 (midpoint between 100% and the lowest measured viability); higher = less toxic; settings: 72 h
Caco-2 [2] = assay: as above; settings: 72 h
Calu-3 [3] = assay: as above; settings: 72 h
U2OS [4] = assay: as above; settings: 72 h
Vero E6 [5] = assay: as above; settings: 72 h
[6] = system: A549-ACE2 infected with SARS-CoV-2; assay: morphology score (similarity to uninfected cells); higher = more like uninfected cells; settings: 24 h
A549-ACE2 [7] = assay: drug-induced phospholipidosis relative to tamoxifen; higher = more phospholipidosis
[8] = system: A549-ACE2 infected with SARS-CoV-2; assay: SARS-CoV-2 infection rate relative to DMSO; higher = more infection; settings: 24 h
HepG2 [9] = assay: cell viability relative to DMSO; higher = less toxic; settings: 72 h
Caco-2 [10] = assay: as above; settings: 72 h
Calu-3 [11] = assay: as above; settings: 72 h
U2OS [12] = assay: as above; settings: 72 h
Vero E6 [13] = assay: as above; settings: 72 h
A549-ACE2 [14] = assay: phospholipidosis EC50; higher = less potent phospholipidosis inducer
[15] = system: A549-ACE2 infected with SARS-CoV-2; assay: cell count relative to DMSO; higher = less toxic; settings: 24 h
HepG2 [16] = assay: drug sensitivity score (DSS) for viability; higher = more toxic; extreme values may be limits of the assay; settings: 72 h
Caco-2 [17] = assay: as above; settings: 72 h
Calu-3 [18] = assay: as above; settings: 72 h
U2OS [19] = assay: as above; settings: 72 h
Vero E6 [20] = assay: as above; settings: 72 h

COc1cc2c(NC3CCN(C(C)C)CC3)nc(N3CCC(F)(F)CC3)nc2cc1OCCCN1CCCC1 [UNC0642]
Settings	drug sensitivity score	relative viability EC50 [µM]
Caco-2 [2]	–	> 10
Caco-2 [17]	0	–
Calu-3 [3]	–	2.78
Calu-3 [18]	4.2	–
HepG2 [1]	–	3.34
HepG2 [16]	4	–
U2OS [4]	–	> 10
U2OS [19]	0.7	–
Vero E6 [5]	–	> 10
Vero E6 [20]	0	–

Settings	SARS-CoV-2 infection rate [%]	cell count [%]	cell viability [%]	morphology score	phospholipidosis EC50 [µM]
A549-ACE2 [14], 48 h	–	–	–	–	1.19
A549-ACE2 [14], 72 h	–	–	–	–	3.66
Caco-2 [10], 1 nM	–	–	101	–	–
Caco-2 [10], 10 nM	–	–	92.5	–	–
Caco-2 [10], 100 nM	–	–	104	–	–
Caco-2 [10], 1000 nM	–	–	106	–	–
Caco-2 [10], 10000 nM	–	–	99.7	–	–
Calu-3 [11], 1 nM	–	–	93.9	–	–
Calu-3 [11], 10 nM	–	–	95.1	–	–
Calu-3 [11], 100 nM	–	–	95.3	–	–
Calu-3 [11], 1000 nM	–	–	96.6	–	–
Calu-3 [11], 10000 nM	–	–	32.9	–	–
HepG2 [9], 1 nM	–	–	95.1	–	–
HepG2 [9], 10 nM	–	–	103	–	–
HepG2 [9], 100 nM	–	–	106	–	–
HepG2 [9], 1000 nM	–	–	102	–	–
HepG2 [9], 10000 nM	–	–	24.8	–	–
U2OS [12], 1 nM	–	–	98.6	–	–
U2OS [12], 10 nM	–	–	95.4	–	–
U2OS [12], 100 nM	–	–	100	–	–
U2OS [12], 1000 nM	–	–	98.6	–	–
U2OS [12], 10000 nM	–	–	81.1	–	–
Vero E6 [13], 1 nM	–	–	96.6	–	–
Vero E6 [13], 10 nM	–	–	102	–	–
Vero E6 [13], 100 nM	–	–	91.6	–	–
Vero E6 [13], 1000 nM	–	–	108	–	–
Vero E6 [13], 10000 nM	–	–	105	–	–
[6], 0.3 µM	–	–	–	0.09	–
[6], 3 µM	–	–	–	0.76	–
[6], 10 µM	–	–	–	0.09	–
[6], 30 µM	–	–	–	-0.23	–
[8], 0.3 µM	87	–	–	–	–
[8], 3 µM	21	–	–	–	–
[8], 10 µM	13	–	–	–	–
[8], 30 µM	35	–	–	–	–
[15], 0.3 µM	–	94	–	–	–
[15], 3 µM	–	122	–	–	–
[15], 10 µM	–	123	–	–	–
[15], 30 µM	–	89	–	–	–

drug-induced phospholipidosis [%], A549-ACE2 [7]
Settings	0.3 µM	0.833333 µM	3.33333 µM	6.66667 µM	10 µM	30 µM
24 h	4.47	9.42	29.6	35.7	32.6	5.01
48 h	8.91	12.1	34	48.6	51.8	0.44
72 h	9.24	11	36.7	55.6	62.4	–

O=C(CCCN1CCC2(CC1)C(=O)N(Cc1cccc(F)c1)CN2c1ccccc1)c1ccc(F)cc1 [3'-fluorobenzylspiperone]
Settings	drug sensitivity score	relative viability EC50 [µM]
Caco-2 [2]	–	3.28
Caco-2 [17]	3.9	–
Calu-3 [3]	–	3.25
Calu-3 [18]	3.8	–
HepG2 [1]	–	3.46
HepG2 [16]	2.7	–
U2OS [4]	–	3.15
U2OS [19]	4.1	–
Vero E6 [20]	2.6	–

Settings	SARS-CoV-2 infection rate [%]	cell count [%]	cell viability [%]	morphology score	phospholipidosis EC50 [µM]
A549-ACE2 [14], 48 h	–	–	–	–	2.95
Caco-2 [10], 1 nM	–	–	90.9	–	–
Caco-2 [10], 10 nM	–	–	91.1	–	–
Caco-2 [10], 100 nM	–	–	100	–	–
Caco-2 [10], 1000 nM	–	–	101	–	–
Caco-2 [10], 10000 nM	–	–	27.9	–	–
Calu-3 [11], 1 nM	–	–	101	–	–
Calu-3 [11], 10 nM	–	–	106	–	–
Calu-3 [11], 100 nM	–	–	90.6	–	–
Calu-3 [11], 1000 nM	–	–	101	–	–
Calu-3 [11], 10000 nM	–	–	29.7	–	–
HepG2 [9], 1 nM	–	–	94.6	–	–
HepG2 [9], 10 nM	–	–	98.1	–	–
HepG2 [9], 100 nM	–	–	95.9	–	–
HepG2 [9], 1000 nM	–	–	103	–	–
HepG2 [9], 10000 nM	–	–	44.4	–	–
U2OS [12], 1 nM	–	–	96.5	–	–
U2OS [12], 10 nM	–	–	102	–	–
U2OS [12], 100 nM	–	–	98.7	–	–
U2OS [12], 1000 nM	–	–	99.8	–	–
U2OS [12], 10000 nM	–	–	26.4	–	–
Vero E6 [13], 1 nM	–	–	103	–	–
Vero E6 [13], 10 nM	–	–	97.2	–	–
Vero E6 [13], 100 nM	–	–	93	–	–
Vero E6 [13], 1000 nM	–	–	95.1	–	–
Vero E6 [13], 10000 nM	–	–	62.9	–	–
[6], 0.1 µM	–	–	–	-0.13	–
[6], 0.3 µM	–	–	–	0.27	–
[6], 1 µM	–	–	–	0.46	–
[6], 3 µM	–	–	–	0.54	–
[8], 0.1 µM	99	–	–	–	–
[8], 0.3 µM	90	–	–	–	–
[8], 1 µM	87	–	–	–	–
[8], 3 µM	17	–	–	–	–
[15], 0.1 µM	–	97	–	–	–
[15], 0.3 µM	–	102	–	–	–
[15], 1 µM	–	109	–	–	–
[15], 3 µM	–	107	–	–	–

drug-induced phospholipidosis [%], A549-ACE2 [7]
Settings	0.3 µM	0.833333 µM	3.33333 µM	6.66667 µM	10 µM	30 µM
24 h	3.51	-1.7	29	48.2	-29.1	-34.9
48 h	4.33	1.23	42.2	60	–	–
72 h	4.04	1.05	39.3	48.1	–	–

Cc1ccc(NC(=O)c2ccc(CN3CCN(C)CC3)cc2)cc1Nc1nccc(-c2cccnc2)n1 [imatinib]
Settings	morphology score, 0.3 µM	morphology score, 3 µM	morphology score, 10 µM	morphology score, 30 µM	phospholipidosis EC50, 24 h [µM]	phospholipidosis EC50, 48 h [µM]	phospholipidosis EC50, 72 h [µM]
A549-ACE2 [14]	–	–	–	–	6.11	13	10
[6]	0.28	0.55	0.73	-0.03	–	–	–

Settings	drug sensitivity score
Calu-3 [18]	0.1
HepG2 [16]	2.4
U2OS [19]	0
Vero E6 [20]	0

O=C(c1ccc(OCCN2CCCCC2)cc1)c1c(-c2ccc(O)cc2)sc2cc(O)ccc12 [raloxifene]
Settings	drug sensitivity score	relative viability EC50 [µM]
Caco-2 [17]	4.6	–
Calu-3 [3]	–	> 10
Calu-3 [18]	0.5	–
HepG2 [16]	1	–
U2OS [4]	–	> 10
U2OS [19]	0	–
Vero E6 [20]	2.3	–

Settings	SARS-CoV-2 infection rate [%]	cell count [%]	cell viability [%]	morphology score	phospholipidosis EC50 [µM]
A549-ACE2 [14], 72 h	–	–	–	–	29.8
Caco-2 [10], 1 nM	–	–	108	–	–
Caco-2 [10], 10 nM	–	–	82.9	–	–
Caco-2 [10], 100 nM	–	–	100	–	–
Caco-2 [10], 1000 nM	–	–	78.3	–	–
Caco-2 [10], 10000 nM	–	–	60.9	–	–
Calu-3 [11], 1 nM	–	–	102	–	–
Calu-3 [11], 10 nM	–	–	92.4	–	–
Calu-3 [11], 100 nM	–	–	98.1	–	–
Calu-3 [11], 1000 nM	–	–	103	–	–
Calu-3 [11], 10000 nM	–	–	79.5	–	–
HepG2 [9], 1 nM	–	–	91.4	–	–
HepG2 [9], 10 nM	–	–	95.2	–	–
HepG2 [9], 100 nM	–	–	93.6	–	–
HepG2 [9], 1000 nM	–	–	101	–	–
HepG2 [9], 10000 nM	–	–	74.1	–	–
U2OS [12], 1 nM	–	–	93	–	–
U2OS [12], 10 nM	–	–	91.3	–	–
U2OS [12], 100 nM	–	–	97.7	–	–
U2OS [12], 1000 nM	–	–	95.4	–	–
U2OS [12], 10000 nM	–	–	89.9	–	–
Vero E6 [13], 1 nM	–	–	107	–	–
Vero E6 [13], 10 nM	–	–	98.8	–	–
Vero E6 [13], 100 nM	–	–	99.3	–	–
Vero E6 [13], 1000 nM	–	–	94.8	–	–
Vero E6 [13], 10000 nM	–	–	67.9	–	–
[6], 0.1 µM	–	–	–	-0.07	–
[6], 0.3 µM	–	–	–	0.17	–
[6], 1 µM	–	–	–	-0.1	–
[6], 3 µM	–	–	–	0.42	–
[8], 0.1 µM	99	–	–	–	–
[8], 0.3 µM	97	–	–	–	–
[8], 1 µM	104	–	–	–	–
[8], 3 µM	84	–	–	–	–
[15], 0.1 µM	–	94	–	–	–
[15], 0.3 µM	–	102	–	–	–
[15], 1 µM	–	97	–	–	–
[15], 3 µM	–	106	–	–	–

drug-induced phospholipidosis [%], A549-ACE2 [7]
Settings	0.3 µM	0.833333 µM	3.33333 µM	6.66667 µM	10 µM	30 µM
24 h	-1.05	-0.52	10.1	22.3	37.7	-2.02
48 h	3.44	1.43	14.5	28.6	41	26.2
72 h	4.4	2.6	17.4	36	56	–

COc1cc2c(cc1OC)-c1c/c(=N\c3c(C)cc(C)cc3C)n(C)c(=O)n1CC2 [trequinsin]
Settings	drug sensitivity score	relative viability EC50 [µM]
Caco-2 [2]	–	> 10
Caco-2 [17]	0	–
Calu-3 [3]	–	> 10
Calu-3 [18]	0.2	–
HepG2 [1]	–	> 10
HepG2 [16]	0.9	–
U2OS [4]	–	> 10
U2OS [19]	0	–
Vero E6 [5]	–	> 10
Vero E6 [20]	0	–

Settings	SARS-CoV-2 infection rate, [8] [%]	cell count, [15] [%]	cell viability, Caco-2 [10] [%]	cell viability, Calu-3 [11] [%]	cell viability, HepG2 [9] [%]	cell viability, U2OS [12] [%]	cell viability, Vero E6 [13] [%]	morphology score, [6]
1 nM	–	–	97.5	102	102	96.8	92.2	–
10 nM	–	–	91.9	89.5	94.4	99.7	97.1	–
100 nM	–	–	97.2	94.3	102	97.6	97	–
0.3 µM	97	100	–	–	–	–	–	0.06
1000 nM	–	–	97	100	92.8	99.6	92.7	–
3 µM	93	103	–	–	–	–	–	0.26
10 µM	59	111	–	–	–	–	–	0.67
10000 nM	–	–	86.4	85	84.1	95.5	89.1	–
30 µM	19	110	–	–	–	–	–	0.75

drug-induced phospholipidosis [%], A549-ACE2 [7]
Settings	0.3 µM	0.833333 µM	3.33333 µM	6.66667 µM	10 µM	30 µM
24 h	3.52	0.24	10.1	3.08	1.51	20.8
48 h	3.24	1.48	5.48	3.57	5.51	32.1
72 h	4.95	1.02	3.84	4.01	6.79	–
